Measured values from PMC5218480 (PLoS ONE, 2017).

Tested on: MV-4-11 cells
Test: Gene expression microarray analysis (Affymetrix PrimeView) and GSEA
Type: cell-based, human
Design: RFU PODN (11730768_x_at) / Fold change /veh PODN (11730768_x_at) / RFU LINC00158 (11744669_a_at) / Fold change /veh LINC00158 (11744669_a_at) / RFU DUSP10 (11751237_a_at) / Fold change /veh DUSP10 (11751237_a_at) / RFU ID3 (11757404_x_at) / Fold change /veh ID3 (11757404_x_at) / RFU PLEKHG5 (11737974_s_at) / Fold change /veh PLEKHG5 (11737974_s_at) / RFU LRRC4B (11730491_at) / Fold change /veh LRRC4B (11730491_at) / RFU GIMAP4 (11747438_a_at) / Fold change /veh GIMAP4 (11747438_a_at) / RFU KRT8 (11758183_x_at) / Fold change /veh KRT8 (11758183_x_at) / RFU CNN1 (11734310_a_at) / Fold change /veh CNN1 (11734310_a_at) / RFU VPS37D (11726825_at) / Fold change /veh VPS37D (11726825_at) / RFU C10orf10 (11716522_x_at) / Fold change /veh C10orf10 (11716522_x_at) / RFU KIR2DL2 /// KIR2DL4 /// KIR2DL5A /// KIR2DL5B /// KIR2DS1 /// KIR2DS2 /// KIR2DS3 /// KIR2DS4 /// KIR3DL3 /// KIR3DL3 /// KIR3DS1 (11738374_at) / Fold change /veh KIR2DL2 /// KIR2DL4 /// KIR2DL5A /// KIR2DL5B /// KIR2DS1 /// KIR2DS2 /// KIR2DS3 /// KIR2DS4 /// KIR3DL3 /// KIR3DL3 /// KIR3DS1 (11738374_at) / RFU C1QL1 (11718748_at) / Fold change /veh C1QL1 (11718748_at) / RFU TMPRSS4 (11747572_a_at) / Fold change /veh TMPRSS4 (11747572_a_at) / RFU HAMP (11756126_x_at) / Fold change /veh HAMP (11756126_x_at) / RFU RNFT2 (11725882_a_at) / Fold change /veh RNFT2 (11725882_a_at) / RFU NR4A2 (11747474_a_at) / Fold change /veh NR4A2 (11747474_a_at) / RFU ABCC12 (11746883_a_at) / Fold change /veh ABCC12 (11746883_a_at) / RFU TMEM136 (11760407_x_at) / Fold change /veh TMEM136 (11760407_x_at) / RFU CLDN22 /// WWC2 (11732394_at) / Fold change /veh CLDN22 /// WWC2 (11732394_at) / RFU HLA-DPB1 (11760878_x_at) / Fold change /veh HLA-DPB1 (11760878_x_at) / RFU SPINT1 (11716480_a_at) / Fold change /veh SPINT1 (11716480_a_at) / RFU GAP43 (11754022_s_at) / Fold change /veh GAP43 (11754022_s_at) / RFU A4GNT (11735810_at) / Fold change /veh A4GNT (11735810_at) / RFU PRB3 (11715151_x_at) / Fold change /veh PRB3 (11715151_x_at) / RFU TUBB4B (11761932_at) / Fold change /veh TUBB4B (11761932_at) / RFU CAPN14 (11732068_a_at) / Fold change /veh CAPN14 (11732068_a_at) / RFU TMCC2 (11721928_a_at) / Fold change /veh TMCC2 (11721928_a_at) / RFU IRGQ (11745062_a_at) / Fold change /veh IRGQ (11745062_a_at) / RFU FAM174B (11720279_a_at) / Fold change /veh FAM174B (11720279_a_at) / RFU TMPRSS4 (11748680_a_at) / Fold change /veh TMPRSS4 (11748680_a_at) / RFU FAM212B (11763350_a_at) / Fold change /veh FAM212B (11763350_a_at) / RFU PLEKHG5 (11743358_a_at) / Fold change /veh PLEKHG5 (11743358_a_at) / RFU ZSCAN30 (11745921_a_at) / Fold change /veh ZSCAN30 (11745921_a_at) / RFU CMKLR1 (11741424_a_at) / Fold change /veh CMKLR1 (11741424_a_at) / RFU LOC101060620 /// MAPK8IP1 (11723275_at) / Fold change /veh LOC101060620 /// MAPK8IP1 (11723275_at) / RFU SPTSSB (11747773_x_at) / Fold change /veh SPTSSB (11747773_x_at) / RFU PRSS12 (11739890_at) / Fold change /veh PRSS12 (11739890_at) / RFU BIN1 (11741810_x_at) / Fold change /veh BIN1 (11741810_x_at) / RFU WNT11 (11732464_a_at) / Fold change /veh WNT11 (11732464_a_at) / RFU C10orf10 (11716521_a_at) / Fold change /veh C10orf10 (11716521_a_at) / RFU C5orf56 (11738089_at) / Fold change /veh C5orf56 (11738089_at) / RFU CYB561 (11721691_x_at) / Fold change /veh CYB561 (11721691_x_at) / RFU ANKRD19P (11752326_a_at) / Fold change /veh ANKRD19P (11752326_a_at) / RFU OR2T12 /// OR2T33 /// OR2T8 (11738714_s_at) / Fold change /veh OR2T12 /// OR2T33 /// OR2T8 (11738714_s_at) / RFU VCAN (11748164_a_at) / Fold change /veh VCAN (11748164_a_at) / RFU JSRP1 (11732532_at) / Fold change /veh JSRP1 (11732532_at) / RFU KRTAP10-11 (11738290_x_at) / Fold change /veh KRTAP10-11 (11738290_x_at) / RFU MYO3A (11730013_a_at) / Fold change /veh MYO3A (11730013_a_at) / RFU EBF3 (11725865_a_at) / Fold change /veh EBF3 (11725865_a_at) / RFU CAMK2N1 (11719241_x_at) / Fold change /veh CAMK2N1 (11719241_x_at) / RFU C5orf56 (11738088_a_at) / Fold change /veh C5orf56 (11738088_a_at) / RFU OLFML3 (11715873_a_at) / Fold change /veh OLFML3 (11715873_a_at) / RFU LOC100653217 /// NTM (11731650_a_at) / Fold change /veh LOC100653217 /// NTM (11731650_a_at) / RFU MAPK11 (11762145_a_at) / Fold change /veh MAPK11 (11762145_a_at) / RFU FIZ1 (11724087_x_at) / Fold change /veh FIZ1 (11724087_x_at) / RFU OASL (11726364_x_at) / Fold change /veh OASL (11726364_x_at) / RFU SOX15 (11748057_x_at) / Fold change /veh SOX15 (11748057_x_at) / RFU CD79A (11719716_a_at) / Fold change /veh CD79A (11719716_a_at) / RFU HIST1H1D (11736915_at) / Fold change /veh HIST1H1D (11736915_at) / RFU CASKIN2 (11723855_a_at) / Fold change /veh CASKIN2 (11723855_a_at) / RFU LOC730098 (11760151_x_at) / Fold change /veh LOC730098 (11760151_x_at) / RFU OR4N2 (11742367_at) / Fold change /veh OR4N2 (11742367_at) / RFU PRRT2 (11749266_a_at) / Fold change /veh PRRT2 (11749266_a_at) / RFU SNX32 (11753110_a_at) / Fold change /veh SNX32 (11753110_a_at) / RFU CDHR5 (11726645_a_at) / Fold change /veh CDHR5 (11726645_a_at) / RFU RCAN1 (11760418_a_at) / Fold change /veh RCAN1 (11760418_a_at) / RFU FAM167A (11723789_a_at) / Fold change /veh FAM167A (11723789_a_at) / RFU FAM26E (11764081_at) / Fold change /veh FAM26E (11764081_at) / RFU ISYNA1 (11749810_s_at) / Fold change /veh ISYNA1 (11749810_s_at) / RFU ACY1 (11761880_at) / Fold change /veh ACY1 (11761880_at) / RFU 11764098_at / Fold change /veh 11764098_at / RFU SAMD14 (11745864_x_at) / Fold change /veh SAMD14 (11745864_x_at) / RFU NPB (11741838_a_at) / Fold change /veh NPB (11741838_a_at) / RFU TMPRSS6 (11731388_a_at) / Fold change /veh TMPRSS6 (11731388_a_at) / RFU KRTAP10-2 (11738614_at) / Fold change /veh KRTAP10-2 (11738614_at) / RFU ARHGAP8 /// PRR5-ARHGAP8 (11727945_x_at) / Fold change /veh ARHGAP8 /// PRR5-ARHGAP8 (11727945_x_at) / RFU KRTAP5-7 /// NADSYN1 (11734609_at) / Fold change /veh KRTAP5-7 /// NADSYN1 (11734609_at) / RFU RASL12 (11751679_a_at) / Fold change /veh RASL12 (11751679_a_at) / RFU CDKN2B (11736163_a_at) / Fold change /veh CDKN2B (11736163_a_at) / RFU PRF1 (11729649_at) / Fold change /veh PRF1 (11729649_at) / RFU, ZNF638 /// ZNF638-IT1 / Fold change vs veh, ZNF638 /// ZNF638-IT1 / RFU, PANK3 / Fold change vs veh, PANK3 / RFU, SH3YL1 / Fold change vs veh, SH3YL1 / RFU, ZEB2 / Fold change vs veh, ZEB2 / RFU, NRIP1 / Fold change vs veh, NRIP1 / RFU, PTTG1IP / Fold change vs veh, PTTG1IP / RFU, CAPN2 / Fold change vs veh, CAPN2 / RFU, MED14 / Fold change vs veh, MED14 / RFU, SNORA58 / Fold change vs veh, SNORA58 / RFU, C1orf63 / Fold change vs veh, C1orf63 / RFU, LRRFIP1 / Fold change vs veh, LRRFIP1 / RFU, NDUFAF7 / Fold change vs veh, NDUFAF7 / RFU, SLC12A2 / Fold change vs veh, SLC12A2 / RFU, IBTK / Fold change vs veh, IBTK / RFU, ESF1 / Fold change vs veh, ESF1 / Fold change vs veh, TMEM50B / RFU, TAOK1 / Fold change vs veh, TAOK1 / RFU, ACBD3 / Fold change vs veh, ACBD3 / RFU, TMA16 / Fold change vs veh, TMA16 / RFU, RWDD3 / Fold change vs veh, RWDD3 / RFU, BCAT1 / Fold change vs veh, BCAT1 / RFU, EDEM3 / Fold change vs veh, EDEM3 / RFU, TMEM33 / Fold change vs veh, TMEM33 / RFU, WDR75 / Fold change vs veh, WDR75 / RFU, AHCTF1 / Fold change vs veh, AHCTF1 / RFU, TFRC / Fold change vs veh, TFRC / RFU, ZDHHC17 / Fold change vs veh, ZDHHC17 / RFU, NOM1 / Fold change vs veh, NOM1 / RFU, ARL8B / Fold change vs veh, ARL8B / RFU, ZBTB11 / Fold change vs veh, ZBTB11 / RFU, TAMM41 / Fold change vs veh, TAMM41 / RFU, KIAA1704 /// LOC100996395 / Fold change vs veh, KIAA1704 /// LOC100996395 / RFU, ING1 / Fold change vs veh, ING1 / RFU, TRMT61B / Fold change vs veh, TRMT61B / RFU, FUBP3 / Fold change vs veh, FUBP3 / RFU, TP53 / Fold change vs veh, TP53 / RFU, TNKS2 / Fold change vs veh, TNKS2 / RFU, ZFP14 / Fold change vs veh, ZFP14 / RFU, ACTR2 / Fold change vs veh, ACTR2 / RFU, PPP3R1 / Fold change vs veh, PPP3R1 / RFU, PIK3R1 / Fold change vs veh, PIK3R1 / RFU, HNRNPA1 / Fold change vs veh, HNRNPA1 / RFU, RNF170 / Fold change vs veh, RNF170 / RFU, ZNF28 / Fold change vs veh, ZNF28 / RFU, RNGTT / Fold change vs veh, RNGTT / RFU, OGT / Fold change vs veh, OGT / RFU, BRD1 / Fold change vs veh, BRD1 / RFU, MARS / Fold change vs veh, MARS / RFU, ZNF655 / Fold change vs veh, ZNF655 / RFU, FAHD1 / Fold change vs veh, FAHD1 / RFU, BDP1 / Fold change vs veh, BDP1 / RFU, LRRCC1 / Fold change vs veh, LRRCC1 / RFU, ARID1A / Fold change vs veh, ARID1A / RFU, ZNF146 / Fold change vs veh, ZNF146 / RFU, ZNF330 / Fold change vs veh, ZNF330 / RFU, GPN3 / Fold change vs veh, GPN3 / RFU, C9orf123 / Fold change vs veh, C9orf123 / RFU, N4BP2L2 / Fold change vs veh, N4BP2L2 / RFU, ARFIP1 / Fold change vs veh, ARFIP1 / RFU, FAM179B / Fold change vs veh, FAM179B / RFU, BCL10 / Fold change vs veh, BCL10 / RFU, UHRF1BP1L / Fold change vs veh, UHRF1BP1L / RFU, BET1 / Fold change vs veh, BET1 / RFU, CNOT2 / Fold change vs veh, CNOT2 / RFU, ZNF268 / Fold change vs veh, ZNF268 / Fold change vs veh, ZNF507 / RFU, DGCR2 / Fold change vs veh, DGCR2 / RFU, WDSUB1 / Fold change vs veh, WDSUB1 / Fold change vs veh, HSP90B1 /// MIR3652 / RFU, ADSS / Fold change vs veh, ADSS / RFU, GK / Fold change vs veh, GK / RFU, ZNF148 / Fold change vs veh, ZNF148 / RFU, TAF9 / Fold change vs veh, TAF9 / RFU, SLC1A5 / Fold change vs veh, SLC1A5 / RFU, SLMO2 / Fold change vs veh, SLMO2 / RFU, ABCC4 / Fold change vs veh, ABCC4 / RFU, LOC101060439 /// RAP1B / Fold change vs veh, LOC101060439 /// RAP1B / RFU, RFX7 / Fold change vs veh, RFX7 / RFU, GTPBP10 / Fold change vs veh, GTPBP10 / RFU, CNEP1R1 / Fold change vs veh, CNEP1R1 / RFU, BIVM-ERCC5 /// ERCC5 / Fold change vs veh, BIVM-ERCC5 /// ERCC5 / RFU, ILF3 / Fold change vs veh, ILF3 / RFU 11762660_at / Fold change /veh 11762660_at / RFU VCAN (11757783_s_at) / Fold change /veh VCAN (11757783_s_at) / RFU DDX43 (11728927_at) / Fold change /veh DDX43 (11728927_at) / RFU KRT8 (11758188_x_at) / Fold change /veh KRT8 (11758188_x_at) / RFU NKD1 (11759106_at) / Fold change /veh NKD1 (11759106_at) / RFU SRD5A1 (11742802_a_at) / Fold change /veh SRD5A1 (11742802_a_at) / RFU TPSAB1 /// TPSB2 (11721975_s_at) / Fold change /veh TPSAB1 /// TPSB2 (11721975_s_at) / RFU GSTM3 (11746129_a_at) / Fold change /veh GSTM3 (11746129_a_at) / RFU IL23R (11737362_x_at) / Fold change /veh IL23R (11737362_x_at) / RFU TMEM51 (11727254_a_at) / Fold change /veh TMEM51 (11727254_a_at) / RFU PIWIL2 (11732686_x_at) / Fold change /veh PIWIL2 (11732686_x_at) / RFU ORM1 (11744905_x_at) / Fold change /veh ORM1 (11744905_x_at) / RFU CCDC152 (11743942_at) / Fold change /veh CCDC152 (11743942_at) / RFU ECM1 (11717891_a_at) / Fold change /veh ECM1 (11717891_a_at) / RFU IL23R (11748794_a_at) / Fold change /veh IL23R (11748794_a_at) / RFU TNFAIP8L3 (11732012_x_at) / Fold change /veh TNFAIP8L3 (11732012_x_at) / RFU MBOAT4 (11741988_at) / Fold change /veh MBOAT4 (11741988_at) / RFU 11764193_at / Fold change /veh 11764193_at / RFU TMEM53 (11763286_at) / Fold change /veh TMEM53 (11763286_at) / RFU MAGEB2 (11727129_at) / Fold change /veh MAGEB2 (11727129_at) / RFU TMEM200A (11744735_a_at) / Fold change /veh TMEM200A (11744735_a_at) / RFU CCDC152 (11751479_a_at) / Fold change /veh CCDC152 (11751479_a_at) / RFU FAM211A (11726209_a_at) / Fold change /veh FAM211A (11726209_a_at) / RFU RGS16 (11746705_a_at) / Fold change /veh RGS16 (11746705_a_at) / RFU VCAN (11755009_s_at) / Fold change /veh VCAN (11755009_s_at) / RFU RHOB (11743442_s_at) / Fold change /veh RHOB (11743442_s_at) / RFU RGS16 (11720943_a_at) / Fold change /veh RGS16 (11720943_a_at) / RFU RGS16 (11720944_at) / Fold change /veh RGS16 (11720944_at) / RFU, VPS4B / Fold change vs veh, VPS4B / RFU, CREB1 / Fold change vs veh, CREB1 / RFU, DNAJC13 / Fold change vs veh, DNAJC13 / RFU, GNAQ / Fold change vs veh, GNAQ / RFU, CDK5R1 / Fold change vs veh, CDK5R1 / RFU, ZRANB3 / Fold change vs veh, ZRANB3 / RFU, CUL4A / Fold change vs veh, CUL4A / RFU, CCNY / Fold change vs veh, CCNY / RFU, UFL1 / Fold change vs veh, UFL1 / RFU, COG3 / Fold change vs veh, COG3 / RFU, DIAPH2 / Fold change vs veh, DIAPH2 / RFU, SKA2 / Fold change vs veh, SKA2 / RFU, AFF3 / Fold change vs veh, AFF3 / RFU, LMF1 / Fold change vs veh, LMF1 / RFU, IPO11 / Fold change vs veh, IPO11 / RFU, DFFB / Fold change vs veh, DFFB / RFU, FOXP1 / Fold change vs veh, FOXP1 / RFU, CARD8 / Fold change vs veh, CARD8 / RFU, STRN3 / Fold change vs veh, STRN3 / RFU, ADK / Fold change vs veh, ADK / RFU, RASSF2 / Fold change vs veh, RASSF2 / RFU, WIPF1 / Fold change vs veh, WIPF1 / RFU, LARP1B / Fold change vs veh, LARP1B / RFU, RASA1 / Fold change vs veh, RASA1 / RFU, RB1 / Fold change vs veh, RB1 / RFU, PPFIA1 / Fold change vs veh, PPFIA1 / RFU, MAT2A / Fold change vs veh, MAT2A / RFU, CCT5 / Fold change vs veh, CCT5 / RFU, WDR92 / Fold change vs veh, WDR92 / RFU, CUX1 / Fold change vs veh, CUX1 / RFU, TTC7A / Fold change vs veh, TTC7A / RFU, TMEM135 / Fold change vs veh, TMEM135 / RFU, DEPTOR / Fold change vs veh, DEPTOR / RFU, CPM / Fold change vs veh, CPM / RFU, DNAJB6 / Fold change vs veh, DNAJB6 / RFU, CACNA2D3 / Fold change vs veh, CACNA2D3 / RFU, DTX4 / Fold change vs veh, DTX4 / RFU, TFCP2 / Fold change vs veh, TFCP2 / RFU, GMCL1 /// GMCL1P1 / Fold change vs veh, GMCL1 /// GMCL1P1 / RFU, AEBP2 / Fold change vs veh, AEBP2 / RFU, SNHG1 /// SNORD22 /// SNORD25 /// SNORD26 /// SNORD27 /// SNORD28 /// SNORD29 /// SNORD31 / Fold change vs veh, SNHG1 /// SNORD22 /// SNORD25 /// SNORD26 /// SNORD27 /// SNORD28 /// SNORD29 /// SNORD31 / Fold change (Aza/veh), C12orf56 (ProbeSet 11735607_a_at) / Fold change (ACY-1035/veh), C12orf56 (ProbeSet 11735607_a_at) / Fold change (Aza/veh), FGFR1OP (ProbeSet 11751329_s_at) / Fold change (ACY-1035/veh), FGFR1OP (ProbeSet 11751329_s_at) / Fold change (Aza/veh), VPS36 (ProbeSet 11739960_a_at) / Fold change (ACY-1035/veh), VPS36 (ProbeSet 11739960_a_at) / RFU SYPL1 (11715823_x_at) / Fold change /veh SYPL1 (11715823_x_at) / RFU IGFBP7 (11715501_s_at) / Fold change /veh IGFBP7 (11715501_s_at) / RFU REEP3 (11722064_at) / Fold change /veh REEP3 (11722064_at) / RFU IGLL1 (11728026_x_at) / Fold change /veh IGLL1 (11728026_x_at): dose or concentration left out as unconfirmed
Conditions: ProbeSet 11725217_a_at; LIST B

SMILES: Nc1ncn([C@@H]2O[C@H](CO)[C@@H](O)[C@H]2O)c(=O)n1 [azacitidine]
- RFU, WDSUB1: 50.65 RFU
